Measurements: ChEMBL document CHEMBL5120881, “Silencing Tautomerization to Isolate Unstable Physalins from Physalis minima” (J Nat Prod, 2022)

Tests used:
SGC-7901 = assay: Antiproliferative activity against human SGC-7901 cells assessed as reduction in cell viability incubated for 48 hrs by CCK8 assay; assay type: functional, cell-based; conditions: SGC-7901, 48 h
[1] = Cytotoxicity against human L02 cells assessed as reduction in cell viability incubated for 48 hrs by CCK8 assay; assay type: toxicity, cell-based
RAW264.7 = assay: Antiinflammatory activity in mouse RAW264.7 assessed as inhibition of LPS-stimulated NO production pretreated with LPS followed by compund addition by Griess reagent based microplate reader assay; assay type: functional, cell-based; conditions: Mus musculus, RAW264.7
A549 = assay: Antiproliferative activity against human A549 cells assessed as reduction in cell viability incubated for 48 hrs by CCK8 assay; assay type: functional, cell-based; conditions: A549, 48 h
[2] = Cytotoxicity against mouse RAW264.7 cells assessed as reduction in cell viability incubated for 48 hrs by CCK8 assay; assay type: toxicity, cell-based
HepG2 = assay: Antiproliferative activity against human HepG2 cells assessed as reduction in cell viability incubated for 48 hrs by CCK8 assay; assay type: functional, cell-based; conditions: HepG2, 48 h
MCF7 = assay: Antiproliferative activity against human MCF7 cells assessed as reduction in cell viability incubated for 48 hrs by CCK8 assay; assay type: functional, cell-based; conditions: MCF7, 48 h

SMILES | IC50 (SGC-7901) [µM] | IC50 at 48 h [1] [µM] | IC50 (RAW264.7) [µM] | IC50 (A549) [µM] | IC50 at 48 h [2] [µM] | IC50 (HepG2) [µM] | IC50 (MCF7) [µM]
C[C@]12C(=O)CC=CC1=CC[C@@H]1[C@@H]2CC[C@]2(O)C(=O)O[C@@]3(C)[C@H]4C[C@@]5(C)[C@@H]6C(=O)[C@@]1(OC[C@@]5(O)C(=O)O4)O[C@@]632 | > 50 | > 50 | 17.5 | > 50 | > 50 | > 50 | > 50
COC(=O)C(C)(O)[C@@]1(C)C[C@@H](O)[C@]2(C)OC(=O)[C@@]3(O)CC[C@H]4[C@@H](C[C@@H](O)[C@@]5(O)CC=CC(=O)[C@]45C)[C@]4(O)O[C@@]23[C@H]1C4=O (some centres not stated) | > 50 | > 50 | 2.9 | > 50 | > 50 | > 50 | > 50
CNC(=N)NCCC[C@H](N)C(=O)OC | – | – | 42.8 | – | – | – | –
C[C@@]12C[C@H]3OC(=O)[C@]1(O)CO[C@@]14O[C@@]5([C@H]2C1=O)[C@@]3(C)OC(=O)[C@@]5(O)CC[C@H]1[C@H]4C[C@H](O)[C@]2(O)CC=CC(=O)[C@]12C | > 50 | > 50 | 14.9 | > 50 | > 50 | > 50 | > 50
C[C@]12C(=O)C=CCC1=CC[C@@H]1[C@@H]2[C@H]2C[C@]3(O)C(=O)O[C@@]4(C)[C@H]5C[C@@]6(C)[C@@H]7[C@@]2(O)[C@@]1(OC[C@H]6C(=O)O5)O[C@@]743 | > 50 | > 50 | 9.5 | > 50 | > 50 | > 50 | > 50
COC(=O)C[C@H](O)C(=O)O[C@]12CC=CC(=O)[C@]1(C)[C@H]1CC[C@]3(O)C(=O)O[C@@]4(C)[C@H]5C[C@]6(C)[C@@H](CO[C@]7(O[C@@]43[C@H]6C7=O)[C@@H]1C[C@H]2O)C(=O)O5 | > 50 | > 50 | 28 | > 50 | > 50 | > 50 | > 50
CO[C@]12CC=CC(=O)[C@]1(C)[C@H]1CC[C@]3(O)C(=O)O[C@@]4(C)[C@H]5C[C@]6(C)[C@@H](CO[C@@]7(O[C@@]43[C@H]6C7=O)[C@@H]1C[C@H]2O)C(=O)O5 | > 50 | > 50 | 75.3 | > 50 | > 50 | > 50 | > 50
C[C@@]12C[C@H]3OC(=O)[C@@H]1CO[C@]14O[C@@]5([C@H]2C1=O)[C@@]3(C)OC(=O)[C@@]5(O)CC[C@H]1[C@H]4C[C@@H](O)[C@@]2(O)CC=CC(=O)[C@]12C | > 50 | > 50 | 49.8 | > 50 | > 50 | > 50 | > 50
C[C@@]12C[C@H]3OC(=O)[C@@H]1CO[C@]14O[C@@]5([C@H]2C1=O)[C@@]3(C)OC(=O)[C@@]5(O)CC[C@H]1[C@H]4C[C@H]2O[C@]23CC=CC(=O)[C@]13C | > 50 | > 50 | 7.9 | > 50 | > 50 | > 50 | > 50
C[C@]12C(=O)C=CC=C1[C@H](O)C[C@@H]1[C@@H]2CC[C@]2(O)C(=O)O[C@@]3(C)[C@H]4C[C@@]5(C)[C@@H]6C(=O)[C@@]1(OC[C@@]5(O)C(=O)O4)O[C@@]632 | > 50 | > 50 | 6.4 | > 50 | > 50 | > 50 | > 50
C[C@]12C(=O)C=CC=C1[C@@H](O)C[C@@H]1[C@@H]2CC[C@@]2(O)C(=O)O[C@@]3(C)[C@H]4C[C@]5(C)[C@@H](CO[C@@]16O[C@]23[C@H]5C6=O)C(=O)O4 [PHYSALIN G] | > 50 | > 50 | 13.5 | > 50 | > 50 | > 50 | > 50
C[C@]12OC(=O)[C@@]3(O)CC[C@H]4[C@@H](C[C@@H](O)[C@]5(O)CC=CC(=O)[C@]45C)[C@@]45OC[C@H]6C(=O)O[C@@H]1C[C@@]6(CO)[C@H](C4=O)[C@]23O5 | > 50 | > 50 | 43.2 | > 50 | > 50 | > 50 | > 50
COC(=O)C[C@@H](O)C(=O)O[C@]12CC=CC(=O)[C@]1(C)[C@H]1CC[C@]3(O)C(=O)O[C@@]4(C)[C@H]5C[C@]6(C)[C@@H](CO[C@]7(O[C@@]43[C@H]6C7=O)[C@@H]1C[C@H]2O)C(=O)O5 | > 50 | > 50 | 32.3 | > 50 | > 50 | > 50 | > 50
C[C@@]12C[C@H]3OC(=O)[C@@H]1CO[C@]14C(=O)O[C@@]5([C@H]21)[C@@]3(C)OC(=O)[C@@]5(O)CC[C@H]1[C@H]4CC[C@@]2(O)CC=CC(=O)[C@]12C | > 50 | > 50 | 78.7 | > 50 | > 50 | > 50 | > 50
C[C@@H]1C(=O)O[C@@H]2C[C@@]1(C)[C@@H]1C(=O)[C@@]3(O)O[C@]14[C@@]2(C)OC(=O)[C@@]4(O)CC[C@H]1[C@H]3C[C@@H](O)[C@@]2(O)CC=CC(=O)[C@]12C | > 50 | > 50 | 56.6 | > 50 | > 50 | > 50 | > 50
C[C@@]12C[C@H]3OC(=O)[C@@H]1CO[C@@]14O[C@@]5([C@H]2C1=O)[C@@]3(C)OC(=O)[C@@]5(O)CC[C@H]1[C@H]4C[C@@H](O)[C@@]2(OC(=O)c3cccnc3)CC=CC(=O)[C@]12C | > 50 | > 50 | 13.6 | > 50 | > 50 | > 50 | > 50
CO[C@]12C=CCC(=O)[C@]1(C)[C@H]1CC[C@]3(O)C(=O)O[C@@]4(C)[C@H]5C[C@]6(C)[C@@H](CO[C@]7(O[C@@]43[C@H]6C7=O)[C@@H]1C[C@H]2O)C(=O)O5 | > 50 | > 50 | 23.8 | > 50 | > 50 | > 50 | > 50
C[C@@]12C[C@H]3OC(=O)[C@@H]1CO[C@@]14O[C@]56[C@H]2[C@]1(O)[C@H](C[C@]5(O)C(=O)O[C@@]36C)[C@H]1[C@H]4CC[C@]2(O)CC=CC(=O)[C@]12C | > 50 | > 50 | 3.6 | > 50 | > 50 | > 50 | > 50
COC(=O)CCC(=O)O[C@]12CC=CC(=O)[C@]1(C)[C@H]1CC[C@]3(O)C(=O)O[C@@]4(C)[C@H]5C[C@]6(C)[C@@H](CO[C@]7(O[C@@]43[C@H]6C7=O)[C@@H]1C[C@H]2O)C(=O)O5 | > 50 | > 50 | 3.1 | > 50 | > 50 | > 50 | > 50
